The values below come from article PMC6048268, “Resveratrol Inhibits Key Steps of Steroid Metabolism in a Human Estrogen-Receptor Positive Breast Cancer Model: Impact on Cellular Proliferation” (Frontiers in Pharmacology, 2018).

For orientation: Km means the substrate concentration at which the rate is half of its maximum.

Each structure is given as a SMILES string. Values joined by “and” are separate entries in the source; they are usually repeats but may differ in a detail not shown here. Identical values can stand only once. Like-named read-outs stand apart in the source and are kept apart here.

Data set [1] relates to MDA-MB-231 cells. The data set can be described thus: Metabolism of RES in MDA-MB-231 cells (HPLC). The note with it: for formation of RES metabolite: RES 0–100 μM; for formation of RES metabolite / maximum metabolite formation rate: 48 h; for maximum metabolite formation rate: 25 μM RES. The method, then:
(§1) After 48 h, the cellular media (100 μl) were mixed with 200 μl ice-cold (-20°C) methanol and subsequently centrifuged (14000 rpm, 5 min). The clear supernatants were then diluted 1:1 with aqueous ammonium acetate buffer (5 mM, pH = 7.4), and 80 μl of the samples were injected onto the HPLC column. […] Calibration of the chromatogram was accomplished using the external standard method.
(§2) The modes of inhibition were subsequently determined from Lineweaver–Burk plots, and the corresponding Ki values were calculated from Dixon plots using GraphPad Prism 6.0.

Data set [2] deals with MCF-7 cells. The data set can be described thus: Metabolism of RES in MCF-7 cells (HPLC). The method, then:
as §1, §2

For data set [3] the following is noted: 0.5–5.0 g/day RES for up to 29 days, healthy subjects; ref Brown et al., 2010; cited from earlier work.
Data set [4] relates to MCF-7 cells. The note with it: for decrease of native hormone precursor: MCF-7, 100 nM. Here is the method:
(§3) Briefly, cartridges were preconditioned with 2 × 1.0 ml acetonitrile and 3 × 1.0 ml ammonium acetate buffer (10 mM, pH = 5.0), and the samples were loaded onto the columns. After washing with 1 × 1.0 ml ammonium acetate buffer (10 mM, pH = 5.0) and 2 × 1.0 ml acetonitrile/ammonium acetate buffer (10 mM, pH 5.0) 10:90 (v/v), the analytes were eluted using 2 × 650 μl acetonitrile/ammonium acetate buffer (10 mM, pH = 5.0) 95:5 (v/v) and evaporated until dry. Subsequently, samples were reconstituted in 270 μl acetonitrile/ammonium acetate buffer (10 mM, pH = 5.0) 25:75 (v/v) and stored at -80°C until further LC–HRMS analysis.
(§4) After media collection, cell monolayers were washed five times with 2.0 ml DPBS, detached using 400 μl TrypLE® solution (37°C, 5 min), mixed with 600 μl DPBS and transferred into sample vials. Aliquots of these suspensions (100 μl each) were diluted and counted using the Casy® TT Cell Counter to determine the exact number of cells per sample well. The remaining cell suspensions (900 μl each) were gently centrifuged (1000 rpm, 8 min), and the supernatants were discarded. The cell pellets were subsequently resuspended in 100 μl aqueous ammonium acetate buffer (10 mM, pH = 5.0) and lysed by five freeze-thaw-cycles in liquid nitrogen (3 min each), followed by thawing at ambient temperature. Ammonium acetate buffer (1000 μl) was added, and the suspensions were centrifuged (14000 rpm, 5 min). Subsequently, the supernatants were concentrated using the same SPE protocol as described above. All processed samples were then stored at -80°C until further LC–HRMS analysis. For each condition, three biologically independent experiments were performed; the reported values represent the overall means ± SD of all values.
(§5) LC was performed with an UltiMate 3000 RSLC-series system coupled to a maXis HD ESI-Qq-TOF mass spectrometer (Bruker Corporation, Bremen, Germany). A Phenomenex Luna® 3 μm C18(2) 100 Å LC column (250 mm × 4.6 mm I.D.; Phenomenex, Inc., Torrance, CA, United States), preceded by a Hypersil® BDS-C18 guard column (5 μm, 10 mm × 4.6 mm I.D.; Thermo Fisher Scientific, Inc.) was used for the separation of the analytes at a flow rate of 1.0 ml/min and a temperature of 43°C. […] The ESI ion source settings were as follows: capillary voltage: -4.5 kV; dry gas flow rate: 8.0 l/min N2; nebulizer: 1.0 bar N2; and dry temperature: 200°C. The ion transfer parameters were set to 400 Vpp funnel RF and 300 Vpp multipole RF, the quadrupole ion energy was 8.0 eV, and the collision cell parameters were as follows: collision RF, 1100 Vpp; collision energy, 10.0 eV; transfer time, 38 μs; and pre-pulse storage, 18 μs. In the range of m/z 150–500, full-scan mass spectra were recorded.
as §2

Data set [5] relates to MDA-MB-231 cells. The note with it: for decrease of native hormone precursor: MDA-MB-231, 100 nM. Here is the method: as §3, §4, §5, §2
In data set [6] the test system is MCF-7 cells. Description: Cell proliferation, Casy cell counting, MCF-7. The data set is classed as cell-based, human. The note with it: 48 h; for cell number: 100 nM hormone precursor. Here is the method: (§6) MDA-MB-231 and MCF-7 breast cancer cells were purchased from the American Type Culture Collection (ATCC; Manassas, VA, United States) and routinely cultivated at 37°C (95% humidity and 5% CO2) in phenolred-free Dulbecco’s modified Eagle medium F-12 (DMEM/F-12), fortified with 1% PenStrep®-solution and 10% fetal bovine serum (Invitrogen; Thermo Fisher Scientific, Inc., Waltham, MA, United States). All experiments were performed during the exponential growth phase of both cell lines. For the experiments, cells were seeded in 6-well-plates at a density of 1.0 × 10^6 cells per well and allowed to attach for 24 h.
(§7) Prior to cell counting with a Casy® TT Cell Counter (OLS OMNI Life Science, Bremen, Germany), the supernatant medium was removed and cells were detached using 400 μl TrypLe® solution (Invitrogen). All experiments were performed in triplicate, and the data were reported as the means ± standard deviation of all values.

Data set [7] relates to MDA-MB-231 cells. The data set can be described thus: Cell proliferation, Casy cell counting, MDA-MB-231. Type of data set: cell-based, human. The note with it: 0–100 nM, 48 h, hormone-deprived. The method, then: as §6, §7
Data set [8] relates to steroid metabolism in MCF-7 cells. Description: Inhibition of steroid metabolism by RES in MCF-7 cells (LC–HRMS). The method, then:
as §3, §4, §5, §2

Setting [9] is: MDA-MB-231, Michaelis–Menten model.
The mark [10] stands for this setting: MDA-MB-231, substrate inhibition model.
The mark [11] stands for this setting: MDA-MB-231, precursor DHEA or E1 0–100 nM, 48 h, Michaelis–Menten.

On to `O=C(O)C1OC(Oc2ccc(C=Cc3cc(O)cc(O)c3)cc2)C(O)C(O)C1O` [RES-4G, trans-resveratrol-4′-O-(β-D-glucuronide)], for which the “formation of RES metabolite” value in data set [1] is “below the detection limit”; in data set [2] (RES 0–100 μM, 48 h), “below the detection limit”.

For `O=S(=O)(O)Oc1ccc(/C=C/c2cc(O)cc(OS(=O)(=O)O)c2)cc1` [RES-DS, trans-resveratrol-3-O-4′-O-disulfate], the “formation of RES metabolite” value in data set [1] is listed as “below the detection limit”.

Take `O=S(=O)(O)Oc1cc(O)cc(/C=C/c2ccc(O)cc2)c1` [RES-3S, trans-resveratrol-3-O-sulfate]: the “maximum metabolite formation rate” value in data set [1] is listed as 2.28 ± 0.33 pmol/10^6 cells/h. For the same molecule, the Vmax came to 3.25 ± 0.44 pmol/10^6 cells/h in data set [1] (setting [9]); 4.31 ± 0.97 pmol/10^6 cells/h in data set [1] (setting [10]); 468.4 ± 9.9 pmol/10^6 cells/h in data set [2] (MCF-7, Michaelis–Menten model); 501.4 ± 17.1 pmol/10^6 cells/h in data set [2] (MCF-7, substrate inhibition model). In addition, the “levels of metabolite relative to RES” value in data set [3] is “approximately 10 fold”. For the same molecule, the “fold increase of metabolite formation in MCF-7 compared with MDA-MB-231” value in data set [2] amounted to 150 fold. In data set [2] (MCF-7, 48 h), the “mean maximum formation rate” value was 340.1 ± 49.4 pmol/10^6 cells/h. For the same molecule, the “reduction in metabolite formation” value in data set [2] (RES up to 100 μM, substrate inhibition) is recorded as 43.2%.

`C[C@]12CC[C@H](O)CC1=CC[C@@H]1[C@@H]2CC[C@]2(C)C(=O)CC[C@@H]12` [DHEA, dehydroepiandrosterone]: the “decrease of native hormone precursor” value is 54.9% in data set [4] (48 h) and 26.8% in data set [5] (48 h). Also, the “remaining precursor concentration in the medium” value in data set [4] (MCF-7, from 100.0 nM, after 48 h) amounted to 45.1 ± 1.8 nM; in data set [5] (MDA-MB-231, from 100 nM, after 48 h), 73.2 ± 2.5 nM. Also, in data set [6], the cell number was 2.69 ± 0.24 × 10^6 cells. Also, in data set [7], the “effect of hormone precursor on cell growth” value is on record as “did not further increase cell growth”.

In the case of `O=C(O)[C@H]1O[C@@H](Oc2cc(O)cc(/C=C/c3ccc(O)cc3)c2)[C@H](O)[C@@H](O)[C@@H]1O` (relative stereo) [RES-3G, trans-resveratrol-3-O-(β-D-glucuronide)], the “maximum metabolite formation rate” value in data set [1] was 23.9 ± 2.4 pmol/10^6 cells/h. Also, the Vmax in data set [1] (setting [9]) came out at 32.8 ± 8.6 pmol/10^6 cells/h; in data set [1] (setting [10]), 43.4 ± 2.2 pmol/10^6 cells/h; in data set [2] (MCF-7, Hill model), 422.9 ± 38.9 pmol/10^6 cells/h. For the same molecule, the “Slope (n)” value in data set [2] (MCF-7, Hill model) came out at 1.86 ± 0.18.

With `C[C@]12CC[C@@H]3c4ccc(O)cc4CC[C@H]3[C@@H]1CCC2=O` [E1, estrone], the “decrease of native hormone precursor” value was 12.9% in data set [4] (48 h) and 12.3% in data set [5] (48 h). In data set [6], the cell number was 3.85 ± 0.36 × 10^6 cells. Further, the stimulation of proliferation in data set [6] (100 nM) came to 59.8%. Besides, the “effect of hormone precursor on cell growth” value in data set [7] is listed as “did not further increase cell growth”.

For `C[C@]12CC[C@@H]3c4ccc(OS(=O)(=O)O)cc4CC[C@H]3[C@@H]1CCC2=O` [E1-S, estrone-3-O-sulfate], the formation rate is 15.1 ± 0.8 fmol/10^6 cells/h in data set [4] (MCF-7, 100 nM E1, 48 h) and 0.49 ± 0.07 fmol/10^6 cells/h in data set [5] (MDA-MB-231, 100 nM E1, 48 h). Moreover, the Vmax was 30.4 ± 2.5 fmol/10^6 cells/h and 30.4 ± 2.5^∗ fmol/10^6 cells/h in data set [4] (MCF-7, precursor DHEA or E1 0–100 nM, 48 h, Michaelis–Menten); 1.08 ± 0.38 fmol/10^6 cells/h in data set [5] (setting [11]); 30.4 ± 0.5 fmol/10^6 cells/h in data set [8] (MCF-7, 0 μM RES); 4.51 ± 0.33^∗ fmol/10^6 cells/h in data set [8] (MCF-7, 5 μM RES); 2.54 ± 0.21^∗ fmol/10^6 cells/h in data set [8] (MCF-7, 10 μM RES); 1.23 ± 0.11^∗ fmol/10^6 cells/h in data set [8] (MCF-7, 25 μM RES). Moreover, the Vmax in data set [8] (MCF-7, 50 μM RES) is 0.57 ± 0.02^∗ fmol/10^6 cells/h; in data set [8] (MCF-7, 100 μM RES) it was 0.28 ± 0.01^∗ fmol/10^6 cells/h. Further, the Km worked out at 0.12 ± 0.0681 µM in data set [5] (setting [11]); 0.102 ± 0.0129 µM in data set [8] (MCF-7, 0 μM RES); 0.094 ± 0.012 µM in data set [8] (MCF-7, 5 μM RES); 0.101 ± 0.0086 µM in data set [8] (MCF-7, 10 μM RES); 0.12 ± 0.0155 µM in data set [8] (MCF-7, 25 μM RES); 0.109 ± 0.0041 µM in data set [8] (MCF-7, 50 μM RES). Besides, the Km in data set [8] (MCF-7, 100 μM RES) turned out to be 0.105 ± 0.009 µM.
